Where two headings read alike, the source gives them in different places.
Tests used:
H460 cells [1] = conditions: for IC50 in H460 cells: Table 1, value is the negative log10 of mol/L
T29Kt1 cells [2] = conditions: Table 1, value is the negative log10 of mol/L
T29 cells = conditions: Table 1; value is the negative log10 of mol/L
Capanc-1 = assay: Cell viability, Capanc-1 pancreatic cancer cells; format: cell-based, human; conditions: for IC50: Homo sapiens, Pancreatic cancer cell
A549CK8 = assay: Cell viability, A549CK8 lung cancer cells; format: cell-based, human; conditions: for IC50: Homo sapiens, read-out: IC50 (−LogM) (converted)
Heb44 = assay: Cell viability, Heb44 kidney cells; format: cell-based
A549 cells = assay: Cell viability, A549 lung cancer cells; format: cell-based, human; conditions: for IC50: Homo sapiens, A549, read-out: IC50 (−LogM), A549, Lung (converted)
miapac = assay: Cell viability, miapac pancreatic cancer cells; format: cell-based, human; conditions: for IC50: Homo sapiens, Pancreatic cancer cell, read-out: IC50 (−LogM) (converted)
Hct116 = assay: Cell viability, Hct116 colon cancer cells; format: cell-based, human; conditions: for IC50: Homo sapiens
H226B cells = assay: Cell viability, H226B lung cancer cells; format: cell-based, human; conditions: for IC50: Homo sapiens
DLD1 = assay: Cell viability, DLD1 colon cancer cells; format: cell-based, human; conditions: for IC50: Homo sapiens
AsPC-1 = assay: Cell viability, AsPC-1 pancreatic cancer cells; format: cell-based, human; conditions: for IC50: Homo sapiens
T29Kt1 cells [3] = assay: cells; conditions: Homo sapiens, T29Kt1, read-out: IC50 in T29k cells, Table 1
H460 cells [4] = assay: cells; conditions: Homo sapiens
CT116P53 = assay: Cell viability, CT116P53 colon cancer cells; format: cell-based, human; conditions: for IC50: Homo sapiens, read-out: IC50 (−LogM) (converted)
Heb46 = assay: Cell viability, Heb46 kidney cells; format: cell-based
HKE3 = assay: Cell viability, HKE3 colon cancer cells; format: cell-based, human; conditions: for IC50: Homo sapiens
Sw620 = assay: Cell viability, Sw620 colon cancer cells; format: cell-based, human; conditions: Sw620, Colon
H1299 cells = assay: Cell viability, H1299 lung cancer cells; format: cell-based, human; conditions: for IC50: Homo sapiens, NCI-H1299, read-out: IC50 (−LogM), h1299, Lung (converted)
H322 cells = assay: Cell viability, H322 lung cancer cells; format: cell-based, human; conditions: for IC50: Homo sapiens
[5] = read-out: IC50 (−LogM), capanc1, Pancrease (converted)
[6] = HCT-116, read-out: IC50 (−LogM), Hct116, Colon (converted)
[7] = read-out: IC50 (−LogM), H226B, Lung, first H226B line (converted)
[8] = read-out: IC50 (−LogM), H226B, Lung, second H226B line (converted)
[9] = DLD-1, read-out: IC50 (−LogM) (converted)
[10] = ASPC1, read-out: IC50 (−LogM), ASPC1, Pancrease (converted)
[11] = NCI-H460, read-out: IC50 (−LogM), H460, Lung (converted)
[12] = NCI-H460, read-out: IC50 in H460 cells, Table 1
[13] = read-out: IC50 (−LogM), HKE3, Colon, first HKE3 line (converted)
[14] = read-out: IC50 (−LogM), HKE3, Colon, second HKE3 line (converted)

4H-1,2,4-Triazol-4-amine, N-[[1-[(2,4-dichlorophenyl)methyl]-1H-indol-3-yl]methyle> [Oncrasin K002]
IC50 in H460 cells (H460 cells [1]): 4.8

7H-Pyrrolo[2,3-d]pyrimidin-4-amine, N-[3-(1H-imidazol-1-yl)propyl]-5,6-diphenyl-7- [Oncrasin K017]
IC50 in T29k cells (T29Kt1 cells [2]): 5 | IC50 in T29 cells (T29 cells): 4.8

O=Cc1cn(Cc2ccccc2)c2ccccc12 [Oncrasin K014, 1-Benzylindole-3-carboxaldehyde]
IC50 (Capanc-1; [5]): 31.6 µM | IC50 (A549CK8): 6.31 µM | IC50 (Heb44): 0.501 µM | IC50 (A549 cells): 31.6 µM | IC50 (miapac): < 31.6 µM | IC50 (Hct116; [6]): 7.94 µM | IC50 (H226B cells; [7]): 2 µM | IC50 (H226B cells; [8]): 31.6 µM | IC50 (DLD1; [9]): < 31.6 µM | IC50 (AsPC-1; [10]): 7.94 µM | IC50 (T29Kt1 cells [3]): 5.01 µM | IC50 (H460 cells [4]; [11]): 0.0251 µM | IC50 (H460 cells [4]; [12]): 0.0251 µM | IC50 (CT116P53): < 31.6 µM | IC50 (Heb46): 3.16 µM | IC50 (HKE3; [13]): 1 µM | IC50 (HKE3; [14]): 5.01 µM

NC(=S)NN=Cc1cn(Cc2ccccc2)c2ccccc12 [Oncrasin K031, Hydrazinecarbothioamide, 2-[[1-(phenylmethyl)-1H-indol-3-yl]methylene]-(9CI)]
IC50 in T29k cells (T29Kt1 cells [2]): 5

O=S(=O)(Nc1nccs1)c1ccc(N=Cc2cn(Cc3ccccc3)c3ccccc23)cc1 [Oncrasin K042, Sulfanilamide, N4-[(1-benzylindol-3-yl)methylene]-N1-2-thiazolyl-(8CI)]
IC50 (−LogM) (Capanc-1; capanc1, Pancrease): 5.5 −LogM | IC50 (−LogM) (A549CK8; A549CK8, Lung): 5.3 −LogM | IC50 in T29k cells (T29Kt1 cells [2]): 6 | IC50 (−LogM) (Heb44): 6.7 −LogM | IC50 (−LogM) (A549 cells; A549, Lung): 5 −LogM | IC50 (−LogM) (miapac; miapac, Pancrease): >4.5 −LogM | IC50 (−LogM) (Hct116; Hct116, Colon): 5 −LogM | IC50 (−LogM) (H226B cells; H226B, Lung, first H226B line): 5.5 −LogM | IC50 (−LogM) (H226B cells; H226B, Lung, second H226B line): 5.3 −LogM | IC50 (−LogM) (DLD1; DLD1, Colon): >4.5 −LogM | IC50 (−LogM) (AsPC-1; ASPC1, Pancrease): 5 −LogM | IC50 (−LogM) (Sw620): >4.5 −LogM | IC50 (−LogM) (H460 cells [1]; H460, Lung): 8 −LogM | IC50 in H460 cells (H460 cells [1]): 8 | IC50 (−LogM) (H1299 cells; h1299, Lung): >4.5 −LogM | IC50 (−LogM) (CT116P53; CT116P53, Colon): >4.5 −LogM | IC50 (−LogM) (H322 cells; H322, Lung): >4.5 −LogM | IC50 (−LogM) (Heb46): 5.4 −LogM | IC50 (−LogM) (HKE3; HKE3, Colon, first HKE3 line): 6 −LogM | IC50 (−LogM) (HKE3; HKE3, Colon, second HKE3 line): 5 −LogM

O=C1C(=Cc2ccccn2)c2ccccc2N1Cc1ccccc1 [Oncrasin K046, 2-Indolinone, 1-benzyl-3-(2-pyridylmethylene)-(8CI)]
IC50 in T29k cells (T29Kt1 cells [2]): 5.3 | IC50 in T29 cells (T29 cells): 5.3

CC(=O)Oc1cn(Cc2ccccc2)c2ccccc12 [Oncrasin K047, Indoxyl, 1-benzyl-, acetate (6CI)]
IC50 in H460 cells (H460 cells [1]): 5

O=Cc1cn(Cc2ccc(Cl)cc2Cl)c2ccccc12 [Oncrasin K050, 1-(2,4-dichlorobenzyl)-1H-indole-3-carbaldehyde]
IC50 in T29k cells (T29Kt1 cells [2]; listed as K50): 5 | IC50 in T29k cells (T29Kt1 cells [2]): 5.8 | IC50 in H460 cells (H460 cells [1]; listed as K50): 6.3 | IC50 in H460 cells (H460 cells [1]): 7

O=Cc1cn(Cc2ccccc2F)c2ccccc12 [Oncrasin K051, 1-(2-fluorobenzyl)-1H-indole-3-carbaldehyde]
IC50 (Capanc-1; [5]): 31.6 µM | IC50 (A549CK8): 10 µM | IC50 (Heb44): 0.316 µM | IC50 (A549 cells): 12.6 µM | IC50 (miapac): < 31.6 µM | IC50 (Hct116; [6]): 10 µM | IC50 (H226B cells; [7]): 0.794 µM | IC50 (H226B cells; [8]): 10 µM | IC50 (DLD1; [9]): < 31.6 µM | IC50 (AsPC-1; [10]): 7.94 µM | IC50 (T29Kt1 cells [3]): 0.316 µM | IC50 (H460 cells [4]; [11]): 0.1 µM | IC50 (H460 cells [4]; [12]): 0.1 µM | IC50 (H1299 cells): 7.94 µM | IC50 (CT116P53): < 31.6 µM | IC50 (Heb46): 10 µM | IC50 (HKE3; [14]): 10 µM

CC(=O)c1cn(Cc2cccc(Cl)c2)c2ccccc12 [Oncrasin K058]
IC50 (T29Kt1 cells [3]): 31.6 µM

O=Cc1cn(Cc2cccc(C(F)(F)F)c2)c2ccccc12 [Oncrasin K62, 1-[3-(trifluoromethyl)benzyl]-1H-indole-3-carbaldehyde]
IC50 (Capanc-1; [5]): 31.6 µM | IC50 (A549CK8): 7.94 µM | IC50 (Heb44): 0.1 µM | IC50 (A549 cells): 10 µM | IC50 (miapac): < 31.6 µM | IC50 (Hct116; [6]): 12.6 µM | IC50 (H226B cells; [7]): 3.16 µM | IC50 (H226B cells; [8]): 10 µM | IC50 (DLD1; [9]): < 31.6 µM | IC50 (AsPC-1; [10]): 15.8 µM | IC50 (T29Kt1 cells [3]): 5.62 µM | IC50 (H460 cells [4]; [11]): 0.0158 µM | IC50 (H460 cells [4]; [12]): 0.0138 µM | IC50 (H1299 cells): 10 µM | IC50 (CT116P53): < 31.6 µM | IC50 (H322 cells; NCI-H322, read-out: IC50 (−LogM) (converted)): 10 µM | IC50 (Heb46): 10 µM | IC50 (HKE3; [13]): 3.16 µM | IC50 (HKE3; [14]): 5.01 µM

OCc1cn(Cc2cccc(C(F)(F)F)c2)c2ccccc12 [Oncrasin K63, {1-[3-(trifluoromethyl)benzyl]-1H-indol-3-yl}methanol]
IC50 (Capanc-1; capanc1, Pancrease, read-out: IC50 (−LogM) (converted)): 31.6 µM | IC50 (A549CK8; A549CK8, Lung): 10 µM | IC50 (Heb44): 0.251 µM | IC50 (miapac; miapac, Pancrease): < 31.6 µM | IC50 (Hct116; HCT-116, Hct116, Colon, read-out: IC50 (−LogM) (converted)): 7.94 µM | IC50 (H226B cells; H226B, Lung, first H226B line, read-out: IC50 (−LogM) (converted)): 0.316 µM | IC50 (H226B cells; H226B, Lung, second H226B line, read-out: IC50 (−LogM) (converted)): 1.58 µM | IC50 (DLD1; DLD-1, DLD1, Colon, read-out: IC50 (−LogM) (converted)): < 31.6 µM | IC50 (AsPC-1; ASPC1, Pancrease, read-out: IC50 (−LogM) (converted)): 10 µM | IC50 (T29Kt1 cells [3]): 0.562 µM | IC50 (H460 cells [4]; [11]): 0.0398 µM | IC50 (H460 cells [4]; [12]): 0.0398 µM | IC50 (CT116P53; CT116P53, Colon): < 31.6 µM | IC50 (H322 cells; NCI-H322, H322, Lung, read-out: IC50 (−LogM) (converted)): 31.6 µM | IC50 (Heb46): 10 µM | IC50 (HKE3; HKE3, Colon, first HKE3 line, read-out: IC50 (−LogM) (converted)): 1 µM | IC50 (HKE3; HKE3, Colon, second HKE3 line, read-out: IC50 (−LogM) (converted)): 1.58 µM

O=Cc1cn(Cc2ccc(C(F)(F)F)cc2)c2ccccc12 [Oncrasin K64, 1H-Indole-3-carboxaldehyde, 1-[[4-(trifluoromethyl)phenyl]methyl]-(9CI)]
IC50 in H460 cells (H460 cells [1]): 5.8

OCN1CC(Cc2ccc(C(F)(F)F)cc2)c2ccccc21 (centres unmarked) [Oncrasin K65]
IC50 (T29Kt1 cells [3]): 1.26 µM | IC50 (H460 cells [4]; [12]): 1.26 µM

Cc1ccc(Cn2cc(CO)c3ccccc32)cc1 [Oncrasin K67, 1H-Indole-3-methanol, 1-[(4-methylphenyl)methyl]-(9CI)]
IC50 in T29k cells (T29Kt1 cells [2]): 6.1 | IC50 in H460 cells (H460 cells [1]): 7 | IC50 in T29 cells (T29 cells): 4.8

O=Cc1cn(Cc2ccc([N+](=O)[O-])cc2)c2ccccc12 [Oncrasin K70, 1-(4-nitrobenzyl)-1H-indole-3-carbaldehyde]
IC50 (T29Kt1 cells [3]): 10 µM | IC50 (H460 cells [4]; [12]): 0.501 µM

OCc1cn(Cc2cccc(Cl)c2)c2ccccc12 [Oncrasin K72, 1H-Indole-3-methanol, 1-[(3-chlorophenyl)methyl]-(9CI)]
IC50 in T29k cells (T29Kt1 cells [2]): 5.75 | IC50 in H460 cells (H460 cells [1]): 5.9

OCc1cn(Cc2ccc(Cl)cc2Cl)c2ccccc12 [Oncrasin K74, 1H-Indole-3-methanol, 1-[(2,4-dichlorophenyl)methyl]-]
IC50 (T29Kt1 cells [3]): 1.58 µM | IC50 (H460 cells [4]; [12]): 0.0794 µM

O=C(CCCCCCC(=O)N/N=C/c1cn(Cc2ccc(Cl)cc2)c2ccccc12)CCCCC1SCC2NC(=O)NC21 (centres unmarked) [Oncrasin K130]
IC50 (T29Kt1 cells [3]): 2.51 µM | IC50 (H460 cells [4]; [12]): 0.398 µM

From US8883841B2, “Oncogenic ras-specific cytotoxic compound and methods of use thereof” (The Board of Regents of the University of Texas System, priority 2005, dated 2014)
